In patent US8728797B2, “Yeast membrane protein expression system and its application in drug screening” (priority 2001, dated 2014):
Values after ≈ are worked out from the molar mass of the structure shown. Marks after values point to notes of the source that are not given here.

Experiments:
AD1002 = assay: Disk drug susceptibility assay of chemosensitisation to fluconazole; assay type: cell-based, S. cerevisiae; settings: 5 μg/ml fluconazole, 12 nanomole peptide on disk
Description: (§1) (A) Checkerboard drug susceptibility assay of AD1002. This assay was conducted as described in Materials and methods in the presence of the indicated concentrations of fluconazole and KN20. (B) Disk drug susceptibility assay of AD1002. This assay was conducted, as described in Materials and methods for Example 4, in the absence or presence of 5 μg/ml fluconazole, with (1) KN0 (12 nanomole), (2) KN20 (12 nanomole) or (0) control amounts of DMSO applied to the disks. (C) Checkerboard drug susceptibility assay of ATCC 10261. This assay was conducted, as described in Material and methods for Example 4, in the presence of the indicated concentrations of fluconazole and KN20. D indicates cell death as measured by a failure to recover any colony forming units when samples from microtitre plate wells were cultured on solid YPD medium.
(§2) Drug susceptibility was measured using disk assays on CSM-URA plates (containing 1.5% w/v agar). Plates were seeded with yeast cells suspended in top agar (5 ml, 10^5 cells/ml). For the uracil-dependent parental strain, agar was supplemented with 0.02% uridine. Five microliters of drug solution or solvent control were spotted onto sterile Whatman paper disks on the top agar. […]

[1] = system: AD124567 (Pdr5p-overexpressing); assay: as above; assay type: cell-based, S. cerevisiae; settings: 120 μg/ml fluconazole, 47 nanomole peptide on disk
Description: (A) Checkerboard drug susceptibility assay of AD124567 in the presence of the indicated concentrations of fluconazole and KN20. (B) Disk drug susceptibility assay of AD124567. This assay was conducted, as described in Materials and methods for example 4, in the absence or presence of fluconazole (120 μg/ml), and in the presence of (1) KN0 (47 nanomole), (2) KN20 (47 nanomole) or (0) control amounts of DMSO applied to disks
as §2

[2] = molecular target: S. cerevisiae plasma membrane H^+-ATPase (Pma1p) (Saccharomyces cerevisiae, UniProt P05030); assay: Plasma membrane H+-ATPase inhibition; assay type: biochemical; settings: read-out: 150 for plasma membrane H^+-ATPase
S. cerevisiae plasma membrane H^+-ATPase (Pma1p), sequence (P05030 whole entry): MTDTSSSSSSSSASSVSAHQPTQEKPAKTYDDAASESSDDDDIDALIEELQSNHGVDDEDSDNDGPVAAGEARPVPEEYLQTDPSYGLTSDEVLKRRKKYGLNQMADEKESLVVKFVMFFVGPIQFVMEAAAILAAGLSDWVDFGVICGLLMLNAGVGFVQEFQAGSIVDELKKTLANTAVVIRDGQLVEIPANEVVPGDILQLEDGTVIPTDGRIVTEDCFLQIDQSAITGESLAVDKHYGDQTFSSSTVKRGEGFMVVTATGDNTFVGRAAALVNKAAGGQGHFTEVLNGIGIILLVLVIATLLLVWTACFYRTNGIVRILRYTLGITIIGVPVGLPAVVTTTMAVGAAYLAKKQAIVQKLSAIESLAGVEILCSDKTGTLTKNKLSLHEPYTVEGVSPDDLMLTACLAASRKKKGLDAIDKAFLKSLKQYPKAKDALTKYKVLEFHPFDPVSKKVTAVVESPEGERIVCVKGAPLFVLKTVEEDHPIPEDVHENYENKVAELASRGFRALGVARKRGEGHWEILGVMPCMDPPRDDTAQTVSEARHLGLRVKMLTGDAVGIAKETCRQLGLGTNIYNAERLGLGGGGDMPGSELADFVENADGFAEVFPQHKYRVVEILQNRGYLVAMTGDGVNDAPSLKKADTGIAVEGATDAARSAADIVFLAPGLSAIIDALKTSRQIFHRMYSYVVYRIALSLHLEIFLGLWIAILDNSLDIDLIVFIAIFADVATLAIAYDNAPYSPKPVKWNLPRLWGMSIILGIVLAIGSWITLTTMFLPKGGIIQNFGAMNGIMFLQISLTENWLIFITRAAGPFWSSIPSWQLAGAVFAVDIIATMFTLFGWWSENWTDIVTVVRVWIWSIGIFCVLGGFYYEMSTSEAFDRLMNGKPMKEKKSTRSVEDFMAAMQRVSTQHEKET

[3] = system: S. cerevisiae AD1002 (CaCdr1p); assay: Checkerboard chemosensitisation to fluconazole; assay type: cell-based
Description: as §1
(§3) Checkerboard drug susceptibility assays were used to measure the chemosensitisation of cells to fluconazole by test compounds such as Pdr5p inhibitors. Fluconazole concentration in the CSM-URA medium was varied in one dimension (between 0 and 80 μg/ml) and the concentration of the test compound was varied in the second dimension (between 0 and 40 μM). Cell inocula, growth conditions and the optical determination of growth were identical to standard liquid MIC determinations. The assays were conducted in 6 by 6 well arrays centred in a 96 well microtitre plate using buffered CSM-URA medium at pH 7.0, with fluconazole and/or peptide included in each well at the indicated concentration.

C. albicans ATCC10261 = assay: Checkerboard chemosensitisation to fluconazole; assay type: cell-based
Description: as §1, §3

S. cerevisiae AD1-8/CDR2 = assay: MIC microdilution test, strain expressing Cdr2p; assay type: cell-based; settings: Saccharomyces cerevisiae, AD18/CDR2, 30° C.
Description: (§4) The MICs of antifungal agents for S. cerevisiae cells were determined by a microdilution test based on the macrodilution reference method of the National Committee for Clinical Laboratory Standards. Cells (10 μl cell suspension, 2×10^5 cells/ml) were inoculated into 90 μl CSM-URA, buffered with 10 mM 2-(N-morpholino)ethanesulfonic acid (MES) and 18 mM N-2-hydroxyethylpiperazine-N′-2-ethanesulfonic acid (HEPES), pH 7.0 and containing 0.67% (w/v) yeast nitrogen base (YNB) in microtitre plate wells. For the uracil-requiring strain AD1-8u^− the medium was supplemented with 0.02% (w/v) uridine. The wells contained, in […], doubling dilutions of antifungal agents (final concentrations: fluconazole, 40-0.078 μg/ml; itraconazole and ketoconazole, 8-0.016 μg/ml). The microtitre plates were incubated at 30° C. for 48 h with shaking and then the growth of cells in individual wells (OD590) was measured with a microplate reader (EL 340, Bio-Tek, Winooski, Vt.). The MIC80 was the lowest concentration of drug that inhibited growth yield by at least 80% compared to a no-drug control.

[4] = system: AD1-8u^− derivative transformed with C. glabrata PDH1; assay: MIC, PDH1 construct; assay type: cell-based, S. cerevisiae; settings: Nakaseomyces glabratus; PDH1 hyper-expressed
Description: as §4

[5] = system: initial construct in AD1-8u^− with barely detectable Cdr1p; assay: MIC, initial defective Cdr1p construct; assay type: cell-based, S. cerevisiae; settings: Saccharomyces cerevisiae
Description: as §4

AD-PDR5 (Pdr5p) = assay: MIC in liquid microdilution assay, AD-PDR5; assay type: cell-based, S. cerevisiae; settings: Saccharomyces cerevisiae
Description: as §4

[6] = system: S. cerevisiae AD1-8 sec6-4/CDR1; assay: MIC microdilution test, sec6-4 host with CDR1; assay type: cell-based; settings: Saccharomyces cerevisiae, 30° C.
Description: as §4

AD1002 cells = assay: Glucose-dependent rhodamine 6G efflux; assay type: cell-based, S. cerevisiae; settings: fluconazole 10 μM in preincubation and all later steps; 10 min after glucose
Description: The efflux of rhodamine 6G at 30° C. was followed by direct measurement of fluorescence in cell supernatants following glucose (2 mM) addition to cell suspensions. […] The indicated concentrations of KN20 were added to AD124567 cells preloaded with rhodamine 6G, the cells were preincubated for 5 minutes at 30° C. and glucose added to commence rhodamine efflux.
A previously described method (Kolaczkowski, M et al. 1996) was adapted to measure rhodamine 6G (Sigma) efflux from whole cells. Yeast cells from exponentially growing cultures in YEPD (OD600 nm=0.5) were collected by centrifugation (3,000×g, 5 min, 20° C.) and washed three times with water. The washed cells were resuspended at a concentration of 0.5×10^6 to 1.0×10^7 cells per ml in HEPES-NaOH (50 mM, pH 7.0) containing 5 mM 2-deoxyglucose and 10 μM rhodamine 6G. In some experiments fluconazole (10 μM) was also added. Cell suspensions were incubated at 30° C. with shaking for 90 min to allow rhodamine accumulation under glucose starvation conditions. The starved cells were washed twice in 50 mM HEPES-NaOH pH 7.0, and portions (400 μl) incubated at 30° C. for 5 min before addition of glucose (final concentration 2 mM) to initiate rhodamine efflux. […] The rhodamine 6G fluorescence of samples was measured using a Cary Eclipse spectrofluorimeter (Varian Inc, Victora Australia). […]

[7] = system: SfiI-containing construct expressing Pdr5p; assay: MIC, SfiI-containing Pdr5p construct; assay type: cell-based, S. cerevisiae; settings: low Pdr5p expression
Description: as §4

[8] = system: S. cerevisiae AD1-8u^− hyper-expressing CDR1-2; assay: MIC, CDR1 allele 2 hyper-expressed; assay type: cell-based; settings: Saccharomyces cerevisiae; hyper-expression of CDR1-2 allele
Description: as §4

S. cerevisiae AD1-8u^− = assay: MIC microdilution test, parental strain; assay type: cell-based; settings: Saccharomyces cerevisiae; AD1-8u^− parental strain; 30° C., 48 h, pH 7.0
Description: as §4

D-octapeptide NH2-Asn-Trp-Trp-Lys-Val-Arg-Arg-Arg-CONH2 with a single 4-methoxy-2,3,6-trimethylbenzenesulphonyl (Mtr) substituent on one tryptophan sidechain; Pdr5p inhibitor [KN20]
chemosensitisation to fluconazole in disk assay (AD1002): chemosensitises
chemosensitisation to fluconazole in disk assay [1]: chemosensitisation
IC50 [2]: 10 µM
growth of AD1002 with KN20 alone ([3]; 10 μM KN20, without fluconazole, pH 7.0): completely resistant
growth of AD1002 with fluconazole plus KN20 ([3]; 10 μg/ml fluconazole plus 10 μM KN20): completely abolished growth
growth of AD1002 with KN20 alone ([3]; 20 μM peptide alone, 48 h): did not affect overall growth
Chemosensitising concentration KN20 ([3]; AD1002 (CaCdr1p)): 10 µM
Fold-sensitisation by KN20 (For FCZ MIC) ([3]; AD1002 (CaCdr1p)): 4 fold
Chemosensitising concentration KN20 (C. albicans ATCC10261; C. albicans ATCC10261): 80 µM
Fold-sensitisation by KN20 (For FCZ MIC) (C. albicans ATCC10261; C. albicans ATCC10261, resistant tail eliminated): 64^a fold

OC(Cn1cncn1)(Cn1cncn1)c1ccc(F)cc1F [fluconazole]
MIC80 (S. cerevisiae AD1-8/CDR2): 64 µg/mL (≈ 209 µM)
Chemosensitising concentration FCZ ([3]; AD1002 (CaCdr1p), with KN20): 10 µg/mL
Chemosensitising concentration FCZ (C. albicans ATCC10261): 2 µg/mL
MIC [4]: 200 µg/mL (≈ 653 µM)
MIC [5]: 20 µg/mL (≈ 65.3 µM)
MIC (AD-PDR5 (Pdr5p)): 400 µg/mL (≈ 1310 µM)
MIC80 [6]: 80 µg/mL (≈ 261 µM)
reduction in the concentration of released rhodamine 6G (AD1002 cells): 32%
MIC [7]: < 40 mu.g/ml
MIC [8]: 80 µg/mL (≈ 261 µM)
MIC80 (S. cerevisiae AD1-8u^−): 0.625 µg/mL (≈ 2.04 µM)
